In patent publication US6962922B2, “Alkynylated quinazoline compounds” (Warner-Lambert Company LLC, priority 2001, dated 2005):

| SMILES | melting point [°C] |
| --- | --- |
| CN(C)C(=O)c1ccc(Cn2c(=O)c3cc(C#CCc4ccccc4)ccc3n(C)c2=O)cc1 [Example 19, N,N-Dimethyl-4-[1-methyl-2,4-dioxo-6-(3-phenyl-prop-1-ynyl)-1,4-dihydro-2H-quinazolin-3-ylmethyl]-benzamide] | 171 to 173 |
| Cn1c(=O)n(Cc2ccc(F)c(F)c2)c(=O)c2cc(C#CCn3ccnc3)ccc21 [Example 29, 3-(3,4-Difluoro-benzyl)-6-(3-imidazol-1-yl-prop-1-ynyl)-1-methyl-1H-quinazoline-2,4-dione] | 163 to 165 |
| Cn1c(=O)n(Cc2ccc(F)c(F)c2)c(=O)c2cc(C#CCn3ccnn3)ccc21 [Example 32, 3-(3,4-Difluoro-benzyl)-1-methyl-6-(3-[1,2,3]triazol-1-yl-prop-1-ynyl)-1H-quinazoline-2,4-dione] | 167 to 169 |
| Cn1c(=O)n(Cc2ccc(F)c(F)c2)c(=O)c2cc(C#CCc3ccc(Cl)cc3)ccc21 [Example 30, 6-[3-(4-Chloro-phenyl)-prop-1-ynyl]-3-(3,4-difluoro-benzyl)-1-methyl-1H-quinazoline-2,4-dione] | 163 to 165 |
| Cn1c(=O)n(Cc2ccc(F)c(F)c2)c(=O)c2cc(C#CCn3cncn3)ccc21 [Example 33, 3-(3,4-Difluoro-benzyl)-1-methyl-6-(3-[1,2,4]triazol-1-yl-prop-1-ynyl)-1H-quinazoline-2,4-dione] | 185 to 187 |
| Cn1c(=O)n(Cc2cccc(F)c2)c(=O)c2cc(C#CCc3ccccc3)ccc21 [Example 26, 3-(3-Fluoro-benzyl)-1-methyl-6-(3-phenyl-prop-1-ynyl)-1H-quinazoline-2,4-dione] | 143 to 144 |
| Cn1c(=O)n(Cc2ccc(Cl)c(Cl)c2)c(=O)c2cc(C#CCn3cncn3)ccc21 [Example 34, 3-(3,4-Dichloro-benzyl)-1-methyl-6-(3-[1,2,4]triazol-1-yl-prop-1-ynyl)-1H-quinazoline-2,4-dione] | 171 to 172 |
| Cn1c(=O)n(Cc2cccc(Cl)c2)c(=O)c2cc(C#CCc3ccccc3)ccc21 [Example 25, 3-(3-Chloro-benzyl)-1-methyl-6-(3-phenyl-prop-ynyl)-1H-quinazoline-2,4-dione] | 164 to 166 |

Second part, the compound after the results:

| melting point [°C] | SMILES |
| --- | --- |
| 161 to 164 | Cn1c(=O)n(Cc2ccc(CO)cc2)c(=O)c2cc(C#CCc3ccccc3)ccc21 [Example 24, 3-(4-Hydroxymethyl-benzyl)-1-methyl-6-(3-phenyl-prop-1-ynyl)-1H-quinazoline-2,4-dione] |
| 175 to 176 | Cn1c(=O)n(Cc2ccc(Cl)cc2)c(=O)c2cc(C#CCc3ccccc3)ccc21 [Example 27, 3-(4-Chloro-benzyl)-1-methyl-6-(3-phenyl-prop-1-ynyl)-1H-quinazoline-2,4-dione] |
| 169 to 171 | Cn1c(=O)n(Cc2cccc(Cl)c2)c(=O)c2cc(C#CCc3ccc(Cl)cc3)ccc21 [Example 31, 3-(3-Chloro-benzyl)-6-[3-(4-chloro-phenyl)-prop-1-ynyl]-1-methyl-1H-quinazoline-2,4-dione] |
